Assay results taken from patent US12727599B2, “Use of cyclodextrins as agrochemical delivery system” (priority 2018, dated 2026).

What was measured:
[1] = Complexation ability of cyclodextrins with chlorantraniliprole; format: physicochemical
[2] = Phase solubility isotherms of folpet-cyclodextrin complexes; format: physicochemical; settings: with folpet
Protocol: The weight ratio of folpet to cyclodextrin was approximately 1:2. The content of folpet in the complex was determined by HPLC. Phase solubility isotherms were carried out for the folpet-cyclodextrin complexes.

Compound | complexation ability [1] | complexation ability [2]
OC[C@H]1O[C@@H]2O[C@H]3[C@H](O)[C@@H](O)[C@@H](O[C@H]4[C@H](O)[C@@H](O)[C@@H](O[C@H]5[C@H](O)[C@@H](O)[C@@H](O[C@H]6[C@H](O)[C@@H](O)[C@@H](O[C@H]7[C@H](O)[C@@H](O)[C@@H](O[C@H]1[C@H](O)[C@H]2O)O[C@@H]7CO)O[C@@H]6CO)O[C@@H]5CO)O[C@@H]4CO)O[C@@H]3CO [Alpha-cyclodextrin, alpha cyclodextrin] | highest complexation ability | –
methyl-beta-cyclodextrin [RAMEB cyclodextrin] | – | highest complexation ability
